Literature values, collected in patent publication US20220387447A1, “FORMULATIONS OF TESTOSTERONE AND METHODS OF TREATMENT THEREWITH” (BOARD OF REGENTS, THE UNIVERSITY OF TEXAS SYSTEM, priority 2016, published 2022).

How the values were obtained:
women = settings: single-dose administration, sublingually
[1] = intranasal administration; baseline mean 2.5 pmol/L

## CC12CCC(=O)C=C1CCC1C2CCC2(C)C(O)CCC12 (centres unmarked) [testosterone, Testosterone]
women
  subjective sexual desire, genital responsiveness, and genital arousal: increase
[1]
  maximum testosterone concentration (mean): 168.2 pmol/L
